These results are taken from paper PMC11530130, “Peripherally restricted PICK1 inhibitor mPD5 ameliorates pain behaviors in murine inflammatory and neuropathic pain models” (JCI Insight, 2024).

Where “and” joins values, the source holds several entries; their conditions need not be identical. Identical values can stand only once.

The test system of the data set is naive mice. The experiment in a line: Single exposure place preference (sePP), naive mice. In kind it is in vivo, mouse. As to the method:
On days 6-8, the escape hole was moved
90 degrees, and all mice went through the second bout of training. On day nine, a second probe trial was performed testing the reversal learning of the mice.
Cancer induced bone pain was induced as described in the “Induction of cancer induced bone pain (CIBP model)"-section. For the assessment of limb use, all mice from one cage were placed in an empty transparent plastic box and left for ten min to habituate. One mouse at a time was moved by tunnel handling or scooping to an identical plastic box for the limb use test. […]
gait, 3 Insignificant limping, 2 Significant limping and shift in bodyweight towards the healthy limb 1 Significant limping and partial lack of use of ipsilateral leg 0 Total lack of use of ipsilateral leg. A score of 0 was used as a humane endpoint. Urine and faeces were cleaned from the plastic box with a dry paper towel between mice from the same cage, and a new plastic box was used for mice from different cages. The limb use test was video filmed for later […]
Assessment of static weight bearing. […]
Initial perception of the drugs was measured by single exposure place preference experiments performed in an elongated three compartment apparatus (67.5 cm x 24 cm) with a biased design of different floor textures and wall patterns and a neutral zone in the middle. […]

Turning to `CCCCCCCCCCCCCC(=O)N(CCOCCOCCC(=O)N[C@@H](Cc1c[nH]cn1)C(=O)N[C@@H](Cc1c[nH]c2ccccc12)C(=O)N[C@@H](CC(C)C)C(=O)N[C@@H](CCCCN)C(=O)N[C@H](C(=O)O)C(C)C)CCOCCOCCC(=O)N[C@@H](Cc1c[nH]cn1)C(=O)N[C@@H](Cc1c[nH]c2ccccc12)C(=O)N[C@@H](CC(C)C)C(=O)N[C@@H](CCCCN)C(=O)N[C@H](C(=O)O)C(C)C` [mPD5, myristoyl-NPEG4-(HWLKV)2], the “time spent in the paired compartment, individual mice” value (naive mice conditioned with 30 μmol/kg) was 310.53 and 374.063 and 737.926 and 573.794 and 360.996 and 424.662 and 697.46. For the same compound, for the setting “naive mice, 30 μmol/kg”, the “preference compared to PBS (intrinsic rewarding properties, sePP)” value is recorded as “did not show any preference”.
